Assay results: PubChem BioAssay (NCI)
Several values for one entry are separate records, joined by “and”; a condition that tells them apart may be missing. Equal values may be shown once.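 Method: 48-hour compound exposure of cells in 96-well plates, five concentrations, linear interpolation of endpoints. Abbreviation: GI50, concentration required for 50% inhibition of growth. TGI denotes the concentration required for complete inhibition of growth.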

Tests used:
Assay in all cases: growth of human tumour cells (NCI), 48 h
[1] = tested on: NCI/ADR-RES ovarian
[2] = tested on: A498 renal
[3] = tested on: U251 CNS
[4] = tested on: HT29 colon
[5] = tested on: UO-31 renal
[6] = tested on: MOLT-4 leukemia
[7] = tested on: DU-145 prostate
[8] = tested on: T-47D breast
[9] = tested on: SW-620 colon
[10] = tested on: OVCAR-5 ovarian
[11] = tested on: EKVX NSCLC
[12] = tested on: A549 NSCLC
[13] = tested on: IGROV1 ovarian
[14] = tested on: UACC-62 melanoma
[15] = tested on: SK-MEL-28 melanoma
[16] = tested on: SF-295 CNS
[17] = tested on: CCRF-CEM leukemia
[18] = tested on: OVCAR-8 ovarian
[19] = tested on: SN12C renal
[20] = tested on: NCI-H226 lung
[21] = tested on: 786-0 renal
[22] = tested on: K-562 leukemia
[23] = tested on: OVCAR-3 ovarian
[24] = tested on: NCI-H522 lung
[25] = tested on: HCT-15 colon
[26] = tested on: PC-3 prostate
[27] = tested on: SK-MEL-2 melanoma
[28] = tested on: COLO 205 colon
[29] = tested on: CAKI-1 renal
[30] = tested on: MCF7 breast
[31] = tested on: HL-60(TB) leukemia
[32] = tested on: RPMI-8226 leukemia
[33] = tested on: MDA-MB-435
[34] = tested on: HOP-92 NSCLC
[35] = tested on: LOX IMVI melanoma
[36] = tested on: RXF 393 renal
[37] = tested on: MDA-MB-231 breast
[38] = tested on: BT-549 breast
[39] = tested on: TK-10 renal
[40] = tested on: OVCAR-4 ovarian
[41] = tested on: NCI-H23 lung
[42] = tested on: SK-MEL-5 melanoma
[43] = tested on: SF-268 CNS
[44] = tested on: MALME-3M melanoma
[45] = tested on: HCT-116 colon
[46] = tested on: SNB-75 CNS
[47] = tested on: UACC-257 melanoma
[48] = tested on: SK-OV-3 ovarian
[49] = tested on: KM12 colon
[50] = tested on: NCI-H460 lung
[51] = tested on: HOP-62 NSCLC
[52] = tested on: MDA-N
[53] = tested on: ACHN renal
[54] = tested on: HCC-2998 colon
[55] = tested on: HS 578T breast
[56] = tested on: SF-539 CNS
[57] = tested on: SR leukemia
[58] = tested on: M14 melanoma
[59] = tested on: SNB-19 CNS

For COc1cc(CC(C)C(C)Cc2ccc(O)c(OC)c2)ccc1O (stereo not given), the TGI [1] was 50 µM and 41.6 µM, the TGI [2] was 32.8 µM and the TGI [3] was 50 µM. For the same compound, the GI50 [4] was 16.2 µM, the TGI [4] was 50 µM and 31.1 µM and the TGI [5] was 25.3 µM. For the same compound, the GI50 [6] was 1.39 µM, the TGI [6] was 22 µM and 13 µM and the GI50 [7] was 17 µM. The TGI [7] was 50 µM and 30.6 µM, the GI50 [8] was 21.9 µM and the TGI [8] was 50 µM and 50.6 µM. For the same compound, the TGI [9] was 50 µM and 35 µM, the GI50 [10] was 14.4 µM and the TGI [10] was > 50 µM and 27.7 µM. For the same compound, the TGI [11] was 41.5 µM and 30.3 µM, the TGI [12] was 50 µM and 27.1 µM and the GI50 [13] was 16.4 µM. The TGI [13] was 43.1 µM and 33.7 µM, the GI50 [14] was 14.4 µM and the TGI [14] was 50 µM and 27.6 µM. The TGI [15] was 50 µM and 35.5 µM, the TGI [16] was 50 µM and 35.1 µM and the GI50 [17] was 0.0496 µM. For the same compound, the TGI [17] was 40.2 µM and 20.8 µM, the TGI [18] was 50 µM and 41 µM and the GI50 [19] was 13.1 µM. For the same compound, the TGI [19] was 50 µM and 26 µM, the GI50 [20] was 16.8 µM and the TGI [20] was 40.7 µM and 33.2 µM. For the same compound, the GI50 [21] was 13.6 µM, the TGI [21] was 50 µM and 26.5 µM and the GI50 [22] was 12.7 µM. For the same compound, the TGI [22] was 50 µM and 39 µM, the TGI [23] was 50 µM and 32.5 µM and the GI50 [24] was 16.2 µM. The TGI [24] was 21.4 µM and 33.5 µM, the GI50 [25] was 18 µM and the TGI [25] was 50 µM and 39.9 µM. It also gave a TGI [26] of 27.7 µM, a TGI [27] of 25 µM and a GI50 [28] of 18.1 µM. The TGI [28] was > 50 µM and 32.9 µM, the TGI [29] was 50 µM and 31.9 µM and the TGI [30] was 38 µM. For the same compound, the GI50 [31] was 0.0179 µM, the GI50 [32] was 19.4 µM and the TGI [32] was 17.4 µM and 45.8 µM. The GI50 [33] was 15.1 µM, the TGI [33] was 38.4 µM and 29.6 µM and the GI50 [34] was 14.5 µM. For the same compound, the TGI [34] was 27.6 µM and 30.2 µM, the GI50 [35] was 17.9 µM and the TGI [35] was 30.7 µM and 40.9 µM. The GI50 [36] was 17.7 µM, the TGI [36] was 42.7 µM and 35.4 µM and the TGI [37] was 50 µM. The TGI [38] was 50 µM and 31.4 µM, the GI50 [39] was 18.2 µM and the TGI [39] was 50 µM and 32.7 µM. The GI50 [40] was 17.3 µM, the TGI [40] was 50 µM and 41.2 µM and the GI50 [41] was 21.2 µM. For the same compound, the TGI [41] was 50 µM and 44.4 µM, the GI50 [42] was 14.9 µM and the TGI [42] was 16.5 µM and 28.1 µM. The TGI [43] was 50 µM and 34.7 µM, the GI50 [44] was 16.2 µM and the TGI [44] was 32.7 µM and 34 µM. The GI50 [45] was 14.6 µM, the TGI [45] was 50 µM and 27.7 µM and the GI50 [46] was 18.4 µM. For the same compound, the TGI [46] was 50 µM and 34.5 µM, the GI50 [47] was 19.2 µM and the TGI [47] was 50 µM and 37.3 µM. The GI50 [48] was 16.9 µM, the TGI [48] was 50 µM and 33.4 µM and the GI50 [49] was 17.6 µM. The TGI [49] was 50 µM and 33.8 µM, the GI50 [50] was 18.3 µM and the TGI [50] was 39.9 µM and 32.3 µM. The GI50 [51] was 17.6 µM, the TGI [51] was 50 µM and 33.6 µM and the GI50 [52] was 13.7 µM. For the same compound, the TGI [52] was 50 µM and 26.6 µM, the TGI [53] was 37.9 µM and 28.2 µM and the TGI [54] was 32.7 µM. For the same compound, the GI50 [55] was 20 µM, the TGI [55] was 22.7 µM and 49.8 µM and the GI50 [56] was 17 µM. The TGI [56] was 50 µM and 31.6 µM, the GI50 [57] was 6.41 µM and the TGI [57] was 18.8 µM and 24.9 µM. For the same compound, the TGI [58] was 47.5 µM and 30.2 µM, the GI50 [59] was 15.8 µM and the TGI [59] was 50 µM and 29.6 µM.
O=c1[nH]c2cc(C(F)(F)F)ccc2nc1CBr was tested, and the TGI [1] was 50.4 µM, the TGI [2] was 33 µM and the TGI [3] was 24.8 µM. It also gave a TGI [4] of 38.6 µM, a TGI [5] of 18.1 µM and a TGI [6] of over 100 µM. It also gave a TGI [7] of 23.1 µM, a TGI [8] of 33.3 µM and a TGI [9] of 37.6 µM. The TGI [10] was 29.3 µM, the TGI [11] was 29.5 µM and the TGI [12] was 27.4 µM. For the same compound, the TGI [13] was 24.5 µM, the TGI [14] was 23.2 µM and the TGI [15] was 30 µM. The TGI [16] was 28.9 µM, the TGI [17] was 5.73 µM and the TGI [18] was 39.6 µM. It also gave a TGI [19] of 34.8 µM, a TGI [20] of 26.7 µM and a TGI [21] of 19.2 µM. For the same compound, the TGI [22] was over 100 µM, the TGI [23] was 23.7 µM and the TGI [24] was 1.52 µM. For the same compound, the TGI [25] was 33.3 µM, the TGI [26] was 26.3 µM and the TGI [27] was 26.6 µM. The TGI [28] was 35.8 µM, the TGI [29] was 17.5 µM and the TGI [30] was 21.7 µM. For the same compound, the TGI [31] was 14.3 µM, the TGI [32] was 69.8 µM and the TGI [33] was 26.2 µM. It also gave a TGI [34] of 11.1 µM, a TGI [35] of 12.8 µM and a TGI [36] of 25.2 µM. It also gave a TGI [37] of 35.6 µM, a TGI [38] of 27.5 µM and a TGI [39] of 27.9 µM. The TGI [40] was 32.3 µM, the TGI [41] was 38.6 µM and the TGI [42] was 28.5 µM. The TGI [43] was 59.1 µM, the TGI [44] was 27.4 µM and the TGI [45] was 28.7 µM. It also gave a TGI [46] of 30.7 µM, a TGI [47] of 28.7 µM and a TGI [48] of 35.2 µM. For the same compound, the TGI [49] was 31.4 µM, the TGI [50] was 32.3 µM and the TGI [51] was 28.7 µM. The TGI [52] was 26.9 µM, the TGI [53] was 20.2 µM and the TGI [54] was 33.2 µM. For the same compound, the TGI [55] was 56.6 µM, the TGI [56] was 16.1 µM and the TGI [57] was over 100 µM. For the same compound, the TGI [58] was 21.1 µM and the TGI [59] was 32.7 µM.
